Assay results as given in patent US11992697B2, “X-ray psoralen activated cancer therapy (X-PACT)” (IMMUNOLIGHT, LLC, priority 2015, dated 2024).

Assays:
[1] = test system: syngeneic 4T1-HER2 tumors; experiment: In-vivo X-PACT trial, tumor growth (FIG. 6); design: species or system BALB/c mice; conditions: 5 μM psoralen (AMT) or 100 μg phosphor with x-ray; compared with expectation from in-vitro data
Procedure: An in-vivo trial was conducted for preliminary evaluation of X-PACT administered to syngeneic 4T1-HER2 tumors grown on BALB/c mice. There were 4 arms of the trial: (1) saline only (control), (2) phosphors alone with x-ray, (3) psoralen (AMT) alone with x-ray, and (4) full X-PACT treatment including both phosphor and psoralen and x-ray irradiation. X-PACT treatments were given in 3 fractions per week, to a total of 6 fractions. In arms 2-3 a consistent x-ray irradiation technique was used (about 1.2 Gy delivered at 75 kVp by 30 mA in 3 minutes) with 100 μg of phosphor, and 5 μM psoralen (AMT) (with μM representing micromolar). 0.5 Million tumor cells were injected per mouse. There were 6-8 mice per arm, and the study was repeated a second time, yielding effective sample sizes of 12-16.
In this evaluation, X-PACT treatment was applied to BALBC mice with syngeneic 4T1-HER2 tumors. In the separate psoralen and phosphor control arms (blue and red respectively), 5 μM psoralen (AMT) and 100 μg of phosphor where applied. A consistent x-ray irradiation technique was used for all arms (except saline control) which was 2 Gy delivered at 75 kVp by 30 mA in 3 minutes.

[2] = test system: 4T1-HER2 cells; experiment: In-vitro X-PACT Annexin V (+) signal by Guava flow cytometry (FIGS. 2B, 4, 5); assay type: cell-based, murine; conditions: component alone; 36 independent irradiation experiments, 1 Gy at 80 kVp
Procedure: Guava Annexin V flow cell cytometry was used to quantify cytotoxicity in 3 murine tumor cell lines (breast-4T1, glioma-CT2A, and sarcoma KP15B8). In-vitro X-PACT studies were conducted on cells prepared in the following manner. Cells were incubated in appropriate growing media and buffers before being trypsinized and plated evenly onto twelve (12) well plates for 24 hours. About 20 minutes prior to X-PACT irradiation, the wells of each plate were exposed to the following combinations of additives: (1) control—cells only with no additives, (2) UVADEX only, (3) phosphors only, (4) UVADEX+phosphors. Each plate had twelve (12) wells with three wells for each of the four treatment arms. […]
Two primary flow cytometry metrics were used to evaluate the X-PACT treatments, both determined at 48h after X-PACT treatment. […] The first metric is metabolically viable cell count (or cell viability) determined from the number of whole cells per well as determined using forward scattering (FSC). […] (All wells on a given plate receive the same dose.) The second metric is Annexin V (+) signal, which is the fraction of the metabolically viable cells which expressed a positive Annexin V signal as determined by flow cell cytometry, and include any cells advancing toward early or late apoptotic cell death. […]

[3] = test system: CT2A (murine malignant glioma); experiment: UV light activated psoralen, Cell-Titer-Glo Luminescence Cell Viability Assay (FIG. 3A); assay type: cell-based; conditions: psoralen 40 μM; UV light 0, 0.25, 0.5, 1.0 J/cm^2
Procedure: (§1) Metabolic cell viability was also assessed visually using Methylene blue staining and ATP-induced Luminescence imaging (Cell-Titer-Glo® Luminescence Cell Viability Assay). The luminescence imaging permitted investigation of the cytotoxicity of psoralen activated directly with a UV lamp, and in the absence of phosphors and x-ray radiation.
(§2) N=4 for each cell line at each UV light condition (0, 0.25, 0.5, 1.0 J/cm^2). The psoralen concentration was 40 μM.

[4] = test system: KP158B (sarcoma); experiment: as above; assay type: cell-based, murine; conditions: psoralen 40 μM; UV light 0, 0.25, 0.5, 1.0 J/cm^2
Procedure: as §1, §2

[5] = test system: 4T1; experiment: as above; assay type: cell-based, murine; conditions: psoralen 40 μM; UV light 0, 0.25, 0.5, 1.0 J/cm^2
Procedure: as §1, §2

Structure (SMILES): O=c1ccc2cc3ccoc3cc2o1 [psoralen]
- component effect on tumor growth (single-component arm with x-ray) [1]: slightly higher component effect
- effect on cytotoxicity (Annexin V signal), multi-variable regression [2]: neither psoralen nor phosphor alone had a strong effect
- effect of UV light activated psoralen on viable cells [3]: reduce viable cells
- effect of UV light activated psoralen on viable cells [4]: reduce viable cells
- effect of UV light activated psoralen on viable cells [5]: reduce viable cells
